Values quoted from earlier work as cited in patent publication US20180028591A1, “MALE AND FEMALE INFERTILITY HERBAL COMPOSITION” (priority 2016, published 2018).

System: rabbit penile tissue
Settings: by nitric oxide and PDE5 activity

COc1ccc(-c2oc3c(CC=C(C)C)c(O[C@@H]4O[C@H](CO)[C@@H](O)[C@H](O)[C@H]4O)cc(O)c3c(=O)c2O[C@@H]2O[C@@H](C)[C@H](O)[C@@H](O)[C@H]2O)cc1 [icariin]
relaxation of penile tissue: relax rabbit penile tissue
